Measurements: PubChem BioAssay AID330 (DTP/NCI, 2004)
Several values for one entry are separate records, joined by “and”; a condition that tells them apart may be missing. Equal values may be shown once. Toxic doses and inconclusive results are not listed.

System: P388 leukemia ip, CD2F1 mice, survival T/C
Assay: NCI In Vivo Anticancer Drug Screen. Data for tumor model P388 Leukemia (intraperitoneal) in CD2F1 (CDF1) mice
Conditions: endpoint: median survival time, higher = longer survival
Method in brief: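 Mice carrying the transplanted tumor received test compound or vehicle. Survival was recorded in each group, and the value is the treated-group measurement divided by that of the vehicle-treated control group.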

[1] = dose: 50.0 mg/kg/injection, schedule: Q01DX005 (ip), vehicle: saline with Tween-80
[2] = dose: 100.0 mg/kg/injection, schedule: Q01DX005 (ip), vehicle: saline with Tween-80
[3] = dose: 200.0 mg/kg/injection, schedule: Q01DX005 (ip), vehicle: saline with Tween-80
[4] = dose: 60.0 mg/kg/injection, schedule: Q01DX005 (ip), vehicle: Klucel (hydroxypropylcellulose) (HPC)
[5] = dose: 120.0 mg/kg/injection, schedule: Q01DX005 (ip), vehicle: Klucel (hydroxypropylcellulose) (HPC)
[6] = dose: 50.0 mg/kg/injection, schedule: Q01DX009 (ip), vehicle: Klucel (hydroxypropylcellulose) (HPC)
[7] = dose: 100.0 mg/kg/injection, schedule: Q01DX009 (ip), vehicle: Klucel (hydroxypropylcellulose) (HPC)
[8] = dose: 25.0 mg/kg/injection, schedule: Q01DX005 (ip), vehicle: saline with Tween-80
[9] = dose: 25.0 mg/kg/injection, schedule: Q01DX009 (ip), vehicle: Klucel (hydroxypropylcellulose) (HPC)
[10] = dose: 50.0 mg/kg/injection, schedule: Q01DX009 (ip), vehicle: saline
[11] = dose: 100.0 mg/kg/injection, schedule: Q01DX009 (ip), vehicle: saline
[12] = dose: 200.0 mg/kg/injection, schedule: Q01DX009 (ip), vehicle: saline
[13] = dose: 50.0 mg/kg/injection, schedule: Q01DX009 (ip), vehicle: saline with Tween-80
[14] = dose: 100.0 mg/kg/injection, schedule: Q01DX009 (ip), vehicle: saline with Tween-80
[15] = dose: 200.0 mg/kg/injection, schedule: Q01DX009 (ip), vehicle: saline with Tween-80
[16] = dose: 12.5 mg/kg/injection, schedule: Q01DX005 (ip), vehicle: saline with Tween-80
[17] = dose: 60.0 mg/kg/injection, schedule: Q01DX005 (ip), vehicle: saline with Tween-80
[18] = dose: 120.0 mg/kg/injection, schedule: Q01DX005 (ip), vehicle: saline with Tween-80
[19] = dose: 240.0 mg/kg/injection, schedule: Q01DX005 (ip), vehicle: saline with Tween-80
[20] = dose: 0.5 mg/kg/injection, schedule: Q01DX009 (ip), vehicle: saline
[21] = dose: 1.0 mg/kg/injection, schedule: Q01DX009 (ip), vehicle: saline

O=C1CCCC(O)=C1[Se]C1=C(O)CCCC1=O
T/C (dose: 6.25 mg/kg/injection, schedule: Q01DX001 (ip), vehicle: saline): 103 % of control
T/C (dose: 12.5 mg/kg/injection, schedule: Q01DX001 (ip), vehicle: saline): 101 % of control
T/C (dose: 25.0 mg/kg/injection, schedule: Q01DX001 (ip), vehicle: saline): 101 % of control

CC1(C)COC2(C)ON12 (centres undefined)
T/C [1]: 106 % of control
T/C [2]: 117 % of control
T/C [3]: 113 % of control

Cc1ncc(C(=O)O)n1Cc1ccccc1
T/C [4]: 94 % of control
T/C [5]: 93 % of control
T/C (dose: 240.0 mg/kg/injection, schedule: Q01DX005 (ip), vehicle: Klucel (hydroxypropylcellulose) (HPC)): 93 % of control

CC(/C=C/c1ccccc1)=N\NS(=O)(=O)c1ccc(C)cc1
T/C [1]: 95 % of control
T/C [2]: 91 % of control

CC1=C/N\C(C#N)=C(C#N)/N=C/C(C)=C\N\C(C#N)=C(C#N)/N=C\1
T/C [6]: 92 % of control
T/C [7]: 105 % of control
T/C (dose: 200.0 mg/kg/injection, schedule: Q01DX009 (ip), vehicle: Klucel (hydroxypropylcellulose) (HPC)): 98 % of control

Cc1cc2c(cc1C)C(=O)C(Br)=C(N)C2=O
T/C [8]: 94 % of control
T/C [1]: 100 % of control and 91 % of control
T/C [2]: 87 % of control
T/C [3]: 92 % of control

CCCCCCCCCCCCOC(=O)c1ccc(OP(=O)(O)OCc2ccccc2)cc1
T/C (dose: 12.5 mg/kg/injection, schedule: Q01DX009 (ip), vehicle: Klucel (hydroxypropylcellulose) (HPC)): 104 % of control
T/C [9]: 121 % of control
T/C [6]: 103 % of control and 115 % of control

CC(=N\O)/C(C)=N/Nc1ccccc1Cl
T/C [10]: 98 % of control
T/C [11]: 104 % of control
T/C [12]: 89 % of control

Nc1nc(Br)c(Br)nc1N
T/C (dose: 100.0 mg/kg/injection, schedule: Q04DX003 (ip), vehicle: other): 100 % of control
T/C (dose: 200.0 mg/kg/injection, schedule: Q04DX003 (ip), vehicle: other): 100 % of control
T/C (dose: 400.0 mg/kg/injection, schedule: Q04DX003 (ip), vehicle: other): 95 % of control

O=C(O)Cc1ccc2c(c1)C(=O)c1ccccc1CO2
T/C [13]: 94 % of control
T/C [14]: 103 % of control
T/C [15]: 100 % of control

CN(C)C1c2cc3ccccc3nc2-c2ccccc2C1(C)C (centres undefined)
T/C [16]: 95 % of control
T/C [8]: 95 % of control
T/C [1]: 100 % of control and 101 % of control
T/C [3]: 97 % of control

NC(N)=Nc1c(N)ncnc1N
T/C [17]: 104 % of control and 95 % of control
T/C [18]: 100 % of control
T/C [19]: 96 % of control and 98 % of control

O=[N+]([O-])c1ccc([Se]c2ncccn2)c([N+](=O)[O-])c1
T/C (dose: 25.0 mg/kg/injection, schedule: Q04DX003 (ip), vehicle: saline): 104 % of control
T/C (dose: 50.0 mg/kg/injection, schedule: Q04DX003 (ip), vehicle: saline): 104 % of control
T/C (dose: 100.0 mg/kg/injection, schedule: Q04DX003 (ip), vehicle: saline): 100 % of control and 117 % of control
T/C (dose: 200.0 mg/kg/injection, schedule: Q04DX003 (ip), vehicle: saline): 100 % of control

N#Cc1ccc(NC(=O)Nc2cccc(C#N)c2)cc1
T/C (dose: 30.0 mg/kg/injection, schedule: Q01DX005 (ip), vehicle: saline with Tween-80): 100 % of control and 103 % of control
T/C [17]: 89 % of control and 92 % of control and 94 % of control
T/C [18]: 91 % of control and 94 % of control
T/C [19]: 94 % of control

CC1=C[C@H]2C[C@]3(C)CC[C@H]4[C@H](C)C(=O)O[C@@H]4[C@@]13OO2
T/C (dose: 0.75 mg/kg/injection, schedule: Q01DX005 (ip), vehicle: Klucel (hydroxypropylcellulose) (HPC)): 107 % of control
T/C (dose: 1.5 mg/kg/injection, schedule: Q01DX005 (ip), vehicle: Klucel (hydroxypropylcellulose) (HPC)): 103 % of control
T/C (dose: 3.0 mg/kg/injection, schedule: Q01DX005 (ip), vehicle: Klucel (hydroxypropylcellulose) (HPC)): 90 % of control
T/C (dose: 6.0 mg/kg/injection, schedule: Q01DX005 (ip), vehicle: Klucel (hydroxypropylcellulose) (HPC)): 111 % of control

Cc1cc(Cl)c2cc3c(cc2n1)CCCC3
T/C [4]: 102 % of control
T/C [5]: 109 % of control

Cc1ccc2nc(NC(=S)NCCCCCCNC(=S)Nc3ccc4cc(C)ccc4n3)ccc2c1
T/C [6]: 93 % of control
T/C [7]: 93 % of control

CC(=O)Nc1ccccc1C(C)=O
T/C [13]: 91 % of control
T/C (dose: 50.0 mg/kg/injection, schedule: Q04DX003 (ip), vehicle: saline with Tween-80): 95 % of control
T/C [14]: 95 % of control
T/C (dose: 100.0 mg/kg/injection, schedule: Q04DX003 (ip), vehicle: saline with Tween-80): 100 % of control
T/C [15]: 100 % of control
T/C (dose: 200.0 mg/kg/injection, schedule: Q04DX003 (ip), vehicle: saline with Tween-80): 100 % of control

C=CC12COC(=O)C(=C)C1C(O)C1C(=C)C(=O)OC1C2 (centres undefined)
T/C [20]: 97 % of control
T/C [21]: 97 % of control
T/C (dose: 2.0 mg/kg/injection, schedule: Q01DX009 (ip), vehicle: saline): 106 % of control
T/C (dose: 4.0 mg/kg/injection, schedule: Q01DX009 (ip), vehicle: saline): 110 % of control

CSC(=Cc1ccc2cc(Br)ccc2[n+]1C)SC
T/C (dose: 3.12 mg/kg/injection, schedule: Q01DX009 (ip), vehicle: Klucel (hydroxypropylcellulose) (HPC)): 110 % of control
T/C (dose: 6.25 mg/kg/injection, schedule: Q01DX009 (ip), vehicle: Klucel (hydroxypropylcellulose) (HPC)): 117 % of control and 121 % of control
T/C [9]: 107 % of control

O=C1C=C(N2CC2)C(=O)C=C1N1CC1
T/C (dose: 0.12 mg/kg/injection, schedule: Q01DX009 (ip), vehicle: saline): 157 % of control
T/C (dose: 0.25 mg/kg/injection, schedule: Q01DX009 (ip), vehicle: saline): 150 % of control and 170 % of control and 196 % of control
T/C [20]: 153 % of control and 185 % of control and 206 % of control
T/C [21]: 95 % of control

CN(C)CCNc1cccc2sc3ccc(O)cc3c(=O)c12
T/C [16]: 113 % of control
T/C [8]: 115 % of control and 123 % of control
T/C [1]: 123 % of control and 124 % of control

O=C(O)C1CCN1 (centres undefined)
T/C [11]: 93 % of control
T/C [12]: 86 % of control
T/C (dose: 300.0 mg/kg/injection, schedule: Q01DX009 (ip), vehicle: saline): 86 % of control

c1ccc(CCC(Cc2cccnc2)c2ccccn2)nc1 (centres undefined)
T/C (dose: 100.0 mg/kg/injection, schedule: Q04DX002 (ip), vehicle: saline): 95 % of control
T/C (dose: 200.0 mg/kg/injection, schedule: Q04DX002 (ip), vehicle: saline): 104 % of control

CC(=O)Oc1cc2c3c(c1)CCCN3CCC2
T/C (dose: 1.25 mg/kg/injection, schedule: Q04DX003 (ip), vehicle: saline with Tween-80): 91 % of control
T/C (dose: 2.5 mg/kg/injection, schedule: Q04DX003 (ip), vehicle: saline with Tween-80): 104 % of control
T/C (dose: 5.0 mg/kg/injection, schedule: Q04DX003 (ip), vehicle: saline with Tween-80): 100 % of control

CCCCN=C(N)N/N=C/c1c2ccccc2c(C)c2ccccc12
T/C (dose: 12.5 mg/kg/injection, schedule: Q04DX002 (ip), vehicle: saline with Tween-80): 104 % of control
T/C (dose: 25.0 mg/kg/injection, schedule: Q04DX002 (ip), vehicle: saline with Tween-80): 104 % of control
T/C (dose: 50.0 mg/kg/injection, schedule: Q04DX002 (ip), vehicle: saline with Tween-80): 104 % of control

COc1nc(NC2OC(CO)C(O)C(O)C2O)c(/C=N/O)c(=O)n1C (centres undefined)
T/C (dose: 60.0 mg/kg/injection, schedule: Q01DX005 (ip), vehicle: saline): 99 % of control
T/C (dose: 120.0 mg/kg/injection, schedule: Q01DX005 (ip), vehicle: saline): 103 % of control
T/C (dose: 240.0 mg/kg/injection, schedule: Q01DX005 (ip), vehicle: saline): 99 % of control

NC(=O)SCC(N)C(=O)O (centres undefined)
T/C [13]: 111 % of control
T/C [10]: 108 % of control
T/C (dose: 50.0 mg/kg/injection, schedule: Q01DX009 (ip), vehicle: suspension in saline): 108 % of control
T/C [14]: 114 % of control and 119 % of control
T/C (dose: 100.0 mg/kg/injection, schedule: Q01DX009 (ip), vehicle: suspension in saline): 121 % of control
T/C (dose: 400.0 mg/kg/injection, schedule: Q01DX009 (ip), vehicle: saline with Tween-80): 101 % of control
T/C (dose: 400.0 mg/kg/injection, schedule: Q01DX009 (ip), vehicle: saline): 98 % of control and 93 % of control
